# Measurements as given in patent publication US20230165831A1, “METHOD AND COMPOSITION FOR RENDERING CANCER CELLS SUSCEPTIBLE TO TREATMENT BY TARGETED ONCOGENETIC DRIVERS” (IMPACT BIOLIFE SCIENCE, INC., priority 2021, published 2023).
# Where two headings read alike, the source gives them in different places.
# How the values were obtained:
# [1] = system: breast cancer line T47D cells;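 further: luminescence read-out after 72 h at 37 °C under 5% CO2, with medium-only wells as blanks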
# Experimental: (§1) To measure the cell inhibition effect of compounds and synergy effect of test articles on ten (10) cell lines using standard CTG assay.
# (§2) 7) Using complete cell medium, adjust the volume of the suspension to achieve a cell concentration.
# (§3) b. A549, T47D, SK-OV-3, MKN45, SK-Hep-1, HT-29, Capan-1, 786-O and LNCaP cell line, for compounds and vehicle groups, the seeding density of cell lines is 3000 cells/80 µL per well. For blank groups, add 100 µL medium. For PBS groups, add 100 µL PBS.
# (§4) 8) Incubate the U87MG, A549, T47D, SK-OV-3, MKN45, SK-Hep-1, HT-29, Capan-1, 786-O and LNCaP cells overnight at 37° C./5% CO2.
# (§5) Solid compound of cis-platinum was solubilized in PBS to a stock solution of 3.333 mM.
# (§6) Final volume is 100 µL per well at this point.
# (§7) 5) Incubate the plates at 37° C./5% CO2 for 72 hours.
# (§8) 1) Incubate the plates at room temperature and away from light for 30 minutes.
# (§9) 3) Add 100 µL /well of CellTiter-Glo® Reagent in each well. Avoid light.
# (§10) 4) Mix contents for 2 minutes on an orbital shaker.
# (§11) 5) Incubate plate at room temperature for 10 minutes to stabilize the luminescent signal.
# 6) Read plates in Envision.
# [2] = system: prostate adenocarcinoma line LNCap cells;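 further: luminescence signal read after adding CellTiter-Glo reagent, with cells exposed to compounds for 72 h at 37 °C under 5% CO2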
# [3] = system: kidney cancer line 786-O cells;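 further: luminescence read-out after adding CellTiter-Glo reagent, with cells incubated at 37 °C under 5% CO2 during compound exposure, part of a ten cell line synergy study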
# Experimental: as §1, §2, §3, §4, §5, §6, §7, §8, §9, §10, §11
# 6) Read plates in Envision.
# [4] = system: Liver cancer line SK-HEP-1 cells;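 further: luminescent signal read after 72 h compound exposure at 37 °C under 5% CO2, with medium-only wells serving as blank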
# [5] = system: ovarian cancer line SK-OV3 cells;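 further: luminescent signal read after CellTiter-Glo addition, cells exposed to compounds for 72 h at 37 °C under 5% CO2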
# Experimental: as §1, §2
# (§12) A549, T47D, SK-OV-3, MKN45, SK-Hep-1, HT-29, Capan-1, 786-O and LNCaP cell line, for compounds and vehicle groups, the seeding density of cell lines is 3000 cells/80 µL per well. For blank groups, add 100 µL medium. For PBS groups, add 100 µL PBS.
# as §4, §5, §6, §7, §8, §9, §10, §11
# 6) Read plates in Envision.
# [6] = system: breast cancer line T47D cells; test: CTG (CellTiter-Glo) cell viability assay, 6×6 combo matrix, 72 h, T47D; details: Homo sapiens;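 further: luminescence read-out after 72 h at 37 °C under 5% CO2, with medium-only wells as blanks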
# Experimental: as §1, §2, §3, §4, §5, §6, §7, §8, §9, §10, §11
# 6) Read plates in Envision.
# [7] = system: colorectal cancer line HT29 cells; test: CTG (CellTiter-Glo) cell viability assay, 6×6 combo matrix, 72 h, HT29; details: for Relatively Cell inhibition of vehicle control(%): HT29;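 on all read-outs here: cells exposed to compounds for 72 hours at 37 °C under 5% CO2, then viability read as luminescence after adding CellTiter-Glo Reagent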
# Experimental: as §1, §2, §3, §4, §5, §6, §7, §8, §9, §10, §11
# 6) Read plates in Envision.
# [8] = system: lung adenocarcinoma line A549 cells; test: CTG (CellTiter-Glo) cell viability assay, 6×6 combo matrix, 72 h, A549; details: A549;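 further: luminescent ATP readout with CellTiter-Glo after compound exposure, used to assess growth inhibition and combination synergy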
# [9] = system: glioblastoma line U87MG cells; test: CTG (CellTiter-Glo) cell viability assay, 6×6 combo matrix, 72 h, U87MG; details: Homo sapiens, U-87 MG;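 further: U87MG cells seeded at 2000 per well, exposed 72 h, viability read by CellTiter-Glo luminescence, inhibition expressed relative to vehicle-treated wells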
# [10] = system: prostate adenocarcinoma line LNCap cells; test: CTG (CellTiter-Glo) cell viability assay, 6×6 combo matrix, 72 h, LNCaP; details: Homo sapiens, LNCaP;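 further: luminescence signal read after adding CellTiter-Glo reagent, with cells exposed to compounds for 72 h at 37 °C under 5% CO2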
# [11] = system: kidney cancer line 786-O cells; test: CTG (CellTiter-Glo) cell viability assay, 6×6 combo matrix, 72 h, 786-O; details: for Relatively Cell inhibition of vehicle control(%): 786-O;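 on all read-outs here: luminescence read-out after adding CellTiter-Glo reagent, with cells incubated at 37 °C under 5% CO2 during compound exposure, part of a ten cell line synergy study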
# Experimental: as §1, §2, §3, §4, §5, §6, §7, §8, §9, §10, §11
# 6) Read plates in Envision.
# [12] = system: ovarian cancer line SK-OV3 cells; test: CTG (CellTiter-Glo) cell viability assay, 6×6 combo matrix, 72 h, SK-OV-3; details: SK-OV-3;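 further: luminescent signal read after CellTiter-Glo addition, cells exposed to compounds for 72 h at 37 °C under 5% CO2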
# Experimental: as §1, §2, §12, §4, §5, §6, §7, §8, §9, §10, §11
# 6) Read plates in Envision.
# [13] = system: Liver cancer line SK-HEP-1 cells; test: CTG (CellTiter-Glo) cell viability assay, 6×6 combo matrix, 72 h, SK-Hep-1; details: Homo sapiens;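 further: luminescent signal read after 72 h compound exposure at 37 °C under 5% CO2, with medium-only wells serving as blank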
# [14] = Homo sapiens, HT-29, read-out: Relatively Cell inhibition of vehicle control(%)
# [15] = Tax 8 nM only (myricetin matrix)
# [16] = Tax 40 nM only (myricetin matrix)
# [17] = Tax 200 nM only (myricetin matrix)
# [18] = Tax 1000 nM only (myricetin matrix)
# [19] = Homo sapiens, 786-0, read-out: Relatively Cell inhibition of vehicle control
compound,measurement,setting,value
"CC(=O)O[C@H]1C(=O)[C@@]2(C)[C@H]([C@H](OC(=O)c3ccccc3)[C@]3(O)C[C@H](OC(=O)[C@H](O)[C@@H](NC(=O)c4ccccc4)c4ccccc4)C(C)=C1C3(C)C)[C@]1(OC(C)=O)CO[C@@H]1C[C@@H]2O [taxol, paclitaxel]",inhibition,[1],17%
same,inhibition,[2],9.88%
same,inhibition,[3],3.15%
same,inhibition,[4],0.78%
same,inhibition,[5],17.4%
same,inhibition at 0.008 µM,"[6]; read-out: Relatively Cell inhibition of vehicle control(%), T47D, 8 nM taxol only (LB-1 0)",33.2%
same,inhibition at 0.008 µM,"[6]; read-out: Relatively Cell inhibition of vehicle control(%), T47D, 8 nM taxol only (myricetin 0)",40.8%
same,inhibition at 0.04 µM,"[6]; read-out: Relatively Cell inhibition of vehicle control(%), T47D, 40 nM taxol only (LB-1 0)",42.2%
same,inhibition at 0.04 µM,"[6]; read-out: Relatively Cell inhibition of vehicle control(%), T47D, 40 nM taxol only (myricetin 0)",48.6%
same,inhibition at 0.2 µM,"[6]; read-out: Relatively Cell inhibition of vehicle control(%), T47D, 200 nM taxol only (LB-1 0)",42%
same,inhibition at 0.2 µM,"[6]; read-out: Relatively Cell inhibition of vehicle control(%), T47D, 200 nM taxol only (myricetin 0)",48.5%
same,inhibition at 1 µM,"[6]; read-out: Relatively Cell inhibition of vehicle control(%), T47D, 1000 nM taxol only (LB-1 0)",38%
same,inhibition at 1 µM,"[6]; read-out: Relatively Cell inhibition of vehicle control(%), T47D, 1000 nM taxol only (myricetin 0)",45.8%
same,inhibition at 0.008 µM,[7]; [14],67.9%
same,inhibition at 0.04 µM,[7]; [14],83.4%
same,inhibition at 0.2 µM,[7]; [14],83.1%
same,inhibition at 1 µM,[7]; [14],82%
same,Relatively Cell inhibition of vehicle control(%),[7]; Tax 8 nM only (Myr 0),73.73%
same,Relatively Cell inhibition of vehicle control(%),[7]; Tax 40 nM only (Myr 0),80.46%
same,Relatively Cell inhibition of vehicle control(%),[7]; Tax 200 nM only (Myr 0),81.35%
same,Relatively Cell inhibition of vehicle control(%),[7]; Tax 1000 nM only (Myr 0),79.03%
same,Relatively Cell inhibition of vehicle control(%),[8]; Tax 8 nM only (LB-1 matrix),55.11%
same,Relatively Cell inhibition of vehicle control(%),[8]; [15],53.76%
same,Relatively Cell inhibition of vehicle control(%),[8]; Tax 40 nM only (LB-1 matrix),68.79%
same,Relatively Cell inhibition of vehicle control(%),[8]; [16],68.03%
same,Relatively Cell inhibition of vehicle control(%),[8]; Tax 200 nM only (LB-1 matrix),77.44%
same,Relatively Cell inhibition of vehicle control(%),[8]; [17],75.24%
same,Relatively Cell inhibition of vehicle control(%),[8]; Tax 1000 nM only (LB-1 matrix),76.64%
same,Relatively Cell inhibition of vehicle control(%),[8]; [18],77.27%
same,inhibition at 0.008 µM,"[9]; 72 h, read-out: Relatively Cell inhibition of vehicle control(%), U87MG, 8 nM taxol only (LB-1 0), 72 h",42.7%
same,inhibition at 0.04 µM,"[9]; 72 h, read-out: Relatively Cell inhibition of vehicle control(%), U87MG, 40 nM taxol only (LB-1 0), 72 h",53.9%
same,inhibition at 0.2 µM,"[9]; 72 h, read-out: Relatively Cell inhibition of vehicle control(%), U87MG, 200 nM taxol only (LB-1 0), 72 h",67.8%
same,inhibition at 1 µM,"[9]; 72 h, read-out: Relatively Cell inhibition of vehicle control(%), U87MG, 1000 nM taxol only (LB-1 0), 72 h",66.2%
same,inhibition at 0.008 µM,"[9]; read-out: Relatively Cell inhibition of vehicle control(%), taxol 8 nM only",46.5%
same,inhibition at 0.04 µM,"[9]; read-out: Relatively Cell inhibition of vehicle control(%), taxol 40 nM only",60.6%
same,inhibition at 0.2 µM,"[9]; read-out: Relatively Cell inhibition of vehicle control(%), taxol 200 nM only",72.2%
same,inhibition at 1 µM,"[9]; read-out: Relatively Cell inhibition of vehicle control(%), taxol 1000 nM only",69.8%
same,inhibition at 0.008 µM,"[10]; read-out: Relatively Cell inhibition of vehicle control(%), taxol 8 nM only (LB-1 plate)",54%
same,inhibition at 0.008 µM,"[10]; read-out: Relatively Cell inhibition of vehicle control(%), taxol 8 nM only (myricetin plate)",62.6%
same,inhibition at 0.04 µM,"[10]; read-out: Relatively Cell inhibition of vehicle control(%), taxol 40 nM only (LB-1 plate)",59.2%
same,inhibition at 0.04 µM,"[10]; read-out: Relatively Cell inhibition of vehicle control(%), taxol 40 nM only (myricetin plate)",65.5%
same,inhibition at 0.2 µM,"[10]; read-out: Relatively Cell inhibition of vehicle control(%), taxol 200 nM only (LB-1 plate)",56.4%
same,inhibition at 0.2 µM,"[10]; read-out: Relatively Cell inhibition of vehicle control(%), taxol 200 nM only (myricetin plate)",62.2%
same,inhibition at 1 µM,"[10]; read-out: Relatively Cell inhibition of vehicle control(%), taxol 1000 nM only (LB-1 plate)",48.8%
same,inhibition at 1 µM,"[10]; read-out: Relatively Cell inhibition of vehicle control(%), taxol 1000 nM only (myricetin plate)",55.6%
same,inhibition at 0.008 µM,[11]; [19],12.2%
same,inhibition at 0.04 µM,[11]; [19],42.6%
same,inhibition at 0.2 µM,[11]; [19],70%
same,inhibition at 1 µM,[11]; [19],74.1%
same,Relatively Cell inhibition of vehicle control(%),[11]; Tax 8 nM only (LB-1 0),12.57%
same,Relatively Cell inhibition of vehicle control(%),[11]; Tax 40 nM only (LB-1 0),43.18%
same,Relatively Cell inhibition of vehicle control(%),[11]; Tax 200 nM only (LB-1 0),69.53%
same,Relatively Cell inhibition of vehicle control(%),[11]; Tax 1000 nM only (LB-1 0),73.05%
same,Relatively Cell inhibition of vehicle control(%),[12]; Tax 8 nM only (LB-1 matrix),41.59%
same,Relatively Cell inhibition of vehicle control(%),[12]; [15],39.88%
same,Relatively Cell inhibition of vehicle control(%),[12]; Tax 40 nM only (LB-1 matrix),54.31%
same,Relatively Cell inhibition of vehicle control(%),[12]; [16],52.55%
same,Relatively Cell inhibition of vehicle control(%),[12]; Tax 200 nM only (LB-1 matrix),71.38%
same,Relatively Cell inhibition of vehicle control(%),[12]; [17],68.68%
same,Relatively Cell inhibition of vehicle control(%),[12]; Tax 1000 nM only (LB-1 matrix),76.39%
same,Relatively Cell inhibition of vehicle control(%),[12]; [18],73.38%
same,inhibition at 0.008 µM,"[13]; SK-HEP1, read-out: Relatively Cell inhibition of vehicle control, taxol 8 nM only (LB-1 table)",30.6%
same,inhibition at 0.008 µM,"[13]; SK-HEP1, read-out: Relatively Cell inhibition of vehicle control, taxol 8 nM only (myricetin table)",36%
same,inhibition at 0.04 µM,"[13]; SK-HEP1, read-out: Relatively Cell inhibition of vehicle control, taxol 40 nM only (LB-1 table)",59.5%
same,inhibition at 0.04 µM,"[13]; SK-HEP1, read-out: Relatively Cell inhibition of vehicle control, taxol 40 nM only (myricetin table)",62.4%
same,inhibition at 0.2 µM,"[13]; SK-HEP1, read-out: Relatively Cell inhibition of vehicle control, taxol 200 nM only (LB-1 table)",68.8%
same,inhibition at 0.2 µM,"[13]; SK-HEP1, read-out: Relatively Cell inhibition of vehicle control, taxol 200 nM only (myricetin table)",65.2%
same,inhibition at 1 µM,"[13]; SK-HEP1, read-out: Relatively Cell inhibition of vehicle control, taxol 1000 nM only (LB-1 table)",78%
same,inhibition at 1 µM,"[13]; SK-HEP1, read-out: Relatively Cell inhibition of vehicle control, taxol 1000 nM only (myricetin table)",78.8%
